From US10829520B2, “Beta-hairpin peptidomimetics” (POLYPHOR AG, priority 2015, dated 2020)
Where a SMILES comes first, the peptide text is derived from it. Bridges are numbered along the chain shown (N, C = ends). [ ]: non-standard residue; d: D form. Tle = CC(C)(C)[C@H](N)C(=O)O; dDab = NCC[C@@H](N)C(=O)O; Nle = CCCC[C@H](N)C(=O)O; Orn = NCCC[C@H](N)C(=O)O; Dab = NCC[C@H](N)C(=O)O; Dap = NC[C@H](N)C(=O)O

Key:
Type in all cases: cell-based
[1] = test system: Acinetobacter baumannii 872842; settings: 872842
[2] = test system: Acinetobacter baumannii DSM 30008; settings: DSM 30008
Outline: (§1)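 MIC in μg/mL; CLSI microdilution; cation-adjusted Mueller-Hinton II with Polysorbate 80 (0.002%); 10^6 CFU/mL; 35° C, 18-20 h.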

Escherichia coli 926415 = settings: 926415
[3] = test system: Escherichia coli ATCC 25922; settings: ATCC 25922
Outline: as §1

[4] = test system: Klebsiella pneumoniae 968733; settings: 968733
[5] = test system: Klebsiella pneumoniae SSI #3010; settings: SSI #3010
Outline: as §1

[6] = test system: Pseudomonas aeruginosa ATCC 27853; settings: ATCC 27853
Outline: as §1

[7] = test system: human red blood cells (hRBC); experiment: Hemolysis of human red blood cells; settings: red cells of human, 1 h, 100 μg/mL
Outline: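 Fresh human red blood cells are washed in PBS, then shaken with peptide (100 μg/mL) at 37° C. for 1 h, final erythrocyte density about 0.9×10^9 cells/mL. After centrifugation, diluted supernatants are read at 540 nm against buffer (0%) and Triton X-100 (100%) lysis controls.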

Row | Compound | Acinetobacter baumannii 872842 MIC [1] [µg/mL] | Acinetobacter baumannii DSM 30008 MIC [2] [µg/mL] | Escherichia coli 926415 MIC (Escherichia coli 926415) [µg/mL] | Escherichia coli ATCC 25922 MIC [3] [µg/mL] | Klebsiella pneumoniae 968733 MIC [4] [µg/mL] | Klebsiella pneumoniae SSI #3010 MIC [5] [µg/mL] | Pseudomonas aeruginosa ATCC 27853 MIC [6] [µg/mL] | Hemolysis at 100 μg/mL [7] [%]
1 | CCCC[C@@H]1NC(=O)[C@@H]2CCCN2C(=O)[C@H]2CCCN2C(=O)[C@H](CO)NC(=O)[C@H](CO)NC(=O)[C@H](C(C)(C)C)NC(=O)[C@H](CCN)NC(=O)[C@H](Cc2c[nH]c3ccccc23)NC(=O)[C@@H](N)CSSC[C@@H](C(=O)N[C@@H](CCC(N)=O)C(=O)N[C@H](CCN)C(=O)N[C@H]2CCNC(=O)[C@H]([C@@H](C)O)NC(=O)[C@H](CCN)NC(=O)[C@H](CCN)NC(=O)[C@H](CC(C)C)NC(=O)[C@@H](Cc3ccccc3)NC(=O)[C@H](CCN)NC2=O)NC(=O)[C@H](CCCN)NC(=O)[C@H](CCN)NC(=O)[C@H](Cc2ccc(O)cc2)NC(=O)[C@H](CO)NC1=O [Ex. 203] (H-CW[Dab][Tle]SS[dP]P[Nle]SY[Dab][Orn]CQ[dDab][Dab][Dab][dF]L[Dab][Dab]T; disulfide 1-14; lactam 17-C) | 0.5 | 2 | 0.25 | 0.5 | 4 | 1 | 1 | <1
2 | CCCC[C@@H]1NC(=O)[C@@H]2CCCN2C(=O)[C@H]2CCCN2C(=O)[C@H](CO)NC(=O)[C@H](C)NC(=O)[C@H](C(C)(C)C)NC(=O)[C@@H](NC(=O)[C@H](Cc2c[nH]c3ccccc23)NC(C)=O)CSSC[C@@H](C(=O)NCC(=O)N[C@@H](CCN)C(=O)N[C@H](C(=O)N[C@@H](CCN)C(=O)N[C@H]2CCNC(=O)[C@H]([C@@H](C)O)NC(=O)[C@H](CCN)NC(=O)[C@H](CCN)NC(=O)[C@H](CC(C)C)NC(=O)[C@@H](Cc3ccccc3)NC(=O)[C@H](CCN)NC2=O)[C@@H](C)O)NC(=O)[C@H](Cc2ccc(O)cc2)NC(=O)[C@H](CO)NC1=O [Ex. 26] (Ac-WC[Tle]AS[dP]P[Nle]SYCG[Dab]T[Dab][Dab][Dab][dF]L[Dab][Dab]T; disulfide 2-11; lactam 16-C) | 0.125 | 0.5 | 0.25 | 0.0625 | 0.5 | 0.25 | 0.25 | <1
3 | CCCC[C@@H]1NC(=O)[C@@H]2CCCN2C(=O)[C@H]2CCCN2C(=O)[C@H]([C@@H](C)O)NC(=O)[C@H](CN)NC(=O)[C@H](C(C)(C)C)NC(=O)[C@@H](NC(=O)[C@H](Cc2c[nH]c3ccccc23)NC(C)=O)CSSC[C@@H](C(=O)N[C@@H](CCN)C(=O)N[C@H](C(=O)N[C@@H](CCN)C(=O)N[C@H]2CCNC(=O)[C@H]([C@@H](C)O)NC(=O)[C@H](CCN)NC(=O)[C@H](CCN)NC(=O)[C@H](CC(C)C)NC(=O)[C@@H](Cc3ccccc3)NC(=O)[C@H](CCN)NC2=O)[C@@H](C)O)NC(=O)[C@H](Cc2ccc(O)cc2)NC(=O)CNC1=O [Ex. 116] (Ac-WC[Tle][Dap]T[dP]P[Nle]GYC[Dab]T[Dab][Dab][Dab][dF]L[Dab][Dab]T; disulfide 2-11; lactam 15-C) | 0.125 | 0.25 | 0.0625 | – | 0.5 | 0.25 | 1 | <1
